Results on 4 substances are retold here after patent US20250290928A1, “METHOD, KIT AND DEVICE FOR DETECTING EXTRACELLULAR VESICLES” (priority 2022, published 2025).

Primed or numbered codes have the meaning given here. *: point of attachment. Dabcyl′ = 4-((4-(dimethylamino)phenyl)azo)benzoic acid, CN(C)c1ccc(/N=N/c2ccc(C(=O)*)cc2)cc1; 5FAM = O=C1OC2(c3ccc(O)cc3Oc3cc(O)ccc32)c2ccc(C(=O)*)cc21

Format in all cases: biochemical, Human
Test [1] deals with ADAM in the MDA-MB-231-derived extracellular vesicles. As to the kind of experiment: Detection of ADAM activity of MDA-MB-231-derived extracellular vesicles with 96-well plate. To be noted: Example 39, EV 3.3 μg/mL, reporter 5 μM, buffer (4). The procedure:
(§1) The MMP14 activity was evaluated with a 96-well plate (manufactured by Thermo Fisher Scientific Inc., model number: 137101). A fluorescence intensity was measured with a fluorescence plate reader (Synergy MX, manufactured by BioTek Instruments, Inc.) at […] every 5 min for 1 hour. For measurement wavelengths, an excitation wavelength of 485±20 nm and a fluorescence wavelength of 528±20 nm were used.
In addition, for detection of ADAM activity, 1 mM EPDAB010 or PEPDAB014 was diluted with the buffer (4) to prepare a 10 μM ADAM detection solution. In addition, for detection of Cathepsin D activity, 1 mM CathD was diluted with the buffer (4) to prepare a 10 μM Cathepsin D detection solution.
50 μL of the ADAM detection solution or the Cathepsin D detection solution was added to 50 μL of each of the samples, a reaction was performed at 30° C., and activity was evaluated.

Test [2] shares this test system. In words: Digital detection of MDA-MB-231-derived extracellular vesicles through ADAM activity in wells. To be noted: for Extracellular vesicle concentration: at a concentration of x1, 50 fL; for Expected value λ / Number of positives / Positive ratio: Example 40, EV 2 μg/mL, reporter 5 μM, 30° C. The procedure:
The concentration of the solution is 4 μg/mL.
50 μL of the ADAM or Cathepsin D detection solution was added to 50 μL of the sample to provide a reaction solution for wells.

Test [3] deals with MMP in the A549-derived extracellular vesicles. As to the kind of experiment: Evaluation of MMP activity of A549-derived extracellular vesicles with 96-well plate (SensoLyte 520 MMP Substrate Sampler Kit). The note with it: Example 34, EV 4 μg/mL, reporter 5 μM, buffer (4). How it is done: as §1
(§2) 50 μL of the MMP detection solution was added to 50 μL of each of the samples, a reaction was performed at 30° C., and MMP activity was evaluated.

For test [4] the test system is unchanged. As to the kind of experiment: Digital detection of A549-derived extracellular vesicles through MMP activity in wells (SB substrates). To be noted: for Extracellular vesicle concentration: at a concentration of x1, 50 fL; for Expected value λ / Number of positives / Positive ratio: Example 36, EV 5 μg/mL, reporter 5 μM, 30° C. The procedure: The concentration of the solution is 10 μg/mL.
50 μL of each of the MMP detection solutions was added to 50 μL of the sample to provide a reaction solution for wells.

Test [5] has as its system MMP in the MDA-MB-231-derived extracellular vesicles. As to the kind of experiment: Evaluation of MMP activity of MDA-MB-231-derived extracellular vesicles with 96-well plate (SensoLyte 520 MMP Substrate Sampler Kit). To be noted: for Fluorescence change after 1 hour of reaction at 30° C.: Example 34, EV 4 μg/mL, reporter 5 μM, buffer (4); for Fluorescence change after 2 hours of reaction at 30° C.: MP, EV 3.3 μg/mL. How it is done:
as §2
(§3) 50 μL of each of the MMP detection solutions was added to 50 μL of each of the samples, a reaction was performed at 30° C., and MMP activity was evaluated.

The test system is the same in test [6]. As to the kind of experiment: Digital detection of MDA-MB-231-derived extracellular vesicles through MMP activity in wells (SB substrates). To be noted: for Expected value λ / Number of positives / Positive ratio: 6 h; for Extracellular vesicle concentration / Expected value λ (×1): Example 35, 6 h; for Extracellular vesicle concentration: at a concentration of x1, 50 fL; for Expected value λ (×1): from power approximation equation. How it is done:
The concentration of the solution is 10 μg/mL. […] The solution was further diluted 2-fold to prepare a standard sample at a concentration of x1/4, further diluted 3-fold to prepare a standard sample at a concentration of x1/12, and further diluted 3-fold to prepare a standard sample at a concentration of x1/36. Thus, the standard samples with four concentrations were prepared.
In addition, 1 mM Alexa Fluor 647 was used as a standard fluorescent substance, and each of the MMP14 detection solutions contained the standard fluorescent substance at a final concentration of 2 μM.
as §3

Where [7] appears, read: 1.25 μM with 1.25 μM Custom #2T.
[8] abbreviates: Example 35, 30° C., EV 0 (free of extracellular vesicles, pseudopositive).
The mark [9] stands for this setting: Example 35, 30° C., EV 1/4 a.u.
Setting [10] is: Example 35, 30° C., EV 1/12 a.u.
Where [11] appears, read: Example 35, 30° C., EV 1/36 a.u.
Where [12] appears, read: Example 35, reporter 5 μM, 30° C., EV 1/2 a.u. (5 μg/mL in reaction solution).

For the substance “Dabcyl-EHADLLAVVAK (5FAM)-NH2 ({Dabcyl′}-EHADLLAVVAK(5FAM)-NH2; SMILES CC(C)C[C@H](NC(=O)[C@H](CC(C)C)NC(=O)[C@H](CC(=O)O)NC(=O)[C@H](C)NC(=O)[C@H](Cc1c[nH]cn1)NC(=O)[C@H](CCC(=O)O)NC(=O)c1ccc(/N=N/c2ccc(N(C)C)cc2)cc1)C(=O)N[C@@H](C)C(=O)N[C@H](C(=O)N[C@H](C(=O)N[C@@H](C)C(=O)N[C@@H](CCCCNC(=O)c1ccc2c(c1)C(=O)OC21c2ccc(O)cc2Oc2cc(O)ccc21)C(N)=O)C(C)C)C(C)C) [PEPDAB014]”, in test [1], the “Fluorescence change after 2 hours of reaction at 30° C.” value (from here on “Fluorescence change after 2 hours”) is reported as 6,939 ΔRFU. Moreover, in test [2] (Example 40, 4 hr), the “Expected value λ (×1)” value worked out at 0.2813 and the Extracellular vesicle concentration is 5.625e+09 mL⁻¹. Moreover, in test [2] (Example 40, 24 hr), the “Expected value λ (×1)” value turned out to be 0.4087 and the Extracellular vesicle concentration came to 8.174e+09 mL⁻¹. In test [2] (4 hr), the “Expected value λ” value came out at 0.05625, the Number of positives was 1,536 and the Positive ratio is 0.0547. Moreover, in test [2] (24 hr), the “Expected value λ” value is 0.08174, the Number of positives was 2,204 and the Positive ratio is 0.07849.
Consider “Dabcyl-SPLAQAVRSSK (5FAM)-NH2 ({Dabcyl′}-SPLAQAVRSSK(5FAM)-NH2; SMILES CC(C)C[C@H](NC(=O)[C@@H]1CCCN1C(=O)[C@H](CO)NC(=O)c1ccc(/N=N/c2ccc(N(C)C)cc2)cc1)C(=O)N[C@@H](C)C(=O)N[C@@H](CCC(N)=O)C(=O)N[C@@H](C)C(=O)N[C@H](C(=O)N[C@@H](CCCNC(=N)N)C(=O)N[C@@H](CO)C(=O)N[C@@H](CO)C(=O)N[C@@H](CCCCNC(=O)c1ccc2c(c1)C(=O)OC21c2ccc(O)cc2Oc2cc(O)ccc21)C(N)=O)C(C)C) [PEPDAB010]”, for which the “Fluorescence change after 2 hours” value in test [1] is recorded as 74,285 ΔRFU. In test [2] (Example 40, 4 hr), the “Expected value λ (×1)” value was 0.4984 and the Extracellular vesicle concentration was determined as 9.968e+09 mL⁻¹. Further, in test [2] (Example 40, 24 hr), the “Expected value λ (×1)” value is recorded as 0.8509 and the Extracellular vesicle concentration worked out at 1.702e+10 mL⁻¹. Also, in test [2] (4 hr), the “Expected value λ” value was 0.09968, the Number of positives is recorded as 2,664 and the Positive ratio came out at 0.09487. In test [2] (24 hr), the “Expected value λ” value was 0.1702, the Number of positives is 4,394 and the Positive ratio is listed as 0.1565.
With “QXL520-Pro-Leu-Gly-Met-Trp-Ser-Arg-Lys(5-FAM)-NH2 (QXL520-PLGMWSRK(5FAM)-NH2) [SB6]”, the “Fluorescence change after 1 hour of reaction at 30° C.” value in test [3] was 2,043 ΔRFU; in test [5] it was 52,130 ΔRFU. Besides, the “Expected value λ (×1)” value was 0.141 in test [4] (Example 36, 4 hr); 0.09817 in test [4] (Example 36, 24 hr); 2.1589 in test [6]. For the same substance, the Extracellular vesicle concentration in test [4] (Example 36, 4 hr) was determined as 2.819e+09 mL⁻¹; in test [4] (Example 36, 24 hr), 1.963e+09 mL⁻¹; in test [6] it was 4.3e+10 mL⁻¹. The “Expected value λ” value in test [4] (4 hr) worked out at 0.07048; in test [4] (24 hr), 0.04908; in test [6] (setting [8]), 3.57E−05; in test [6] (setting [9]) it was 0.5449; in test [6] (setting [10]) it was 0.09454; in test [6] (setting [11]), 0.04778. The “Expected value λ” value in test [6] (setting [12]) worked out at 1.006. Also, the Number of positives in test [4] (4 hr) is given as 1,911; in test [4] (24 hr), 1,345; in test [6] (setting [8]), 1; in test [6] (setting [9]), 11,797; in test [6] (setting [10]) it was 2,533; in test [6] (setting [11]), 1,310. The Number of positives in test [6] (setting [12]) is 17,761. For the same substance, the Positive ratio is 0.06806 in test [4] (4 hr); 0.0479 in test [4] (24 hr); 3.57E−05 in test [6] (setting [8]); 0.4201 in test [6] (setting [9]); 0.09021 in test [6] (setting [10]); 0.04665 in test [6] (setting [11]). Moreover, in test [6] (setting [12]), the Positive ratio is on record as 0.6343. Moreover, the “Fluorescence change after 2 hours” value was 37,893 ΔRFU in test [5] (setting [7]) and 57,158 ΔRFU in test [5] (5 μM with 5 μM Custom #2T).
With “QXL520-Pro-Tyr-Ala-Tyr-Trp-Met-Arg-Lys(5-FAM)-NH2 (QXL520-PYAYWMRK(5FAM)-NH2) [SB7]”, the “Fluorescence change after 1 hour of reaction at 30° C.” value in test [3] is listed as 1,228 ΔRFU; in test [5] it was 39,031 ΔRFU. In addition, the “Expected value λ (×1)” value in test [4] (Example 36, 4 hr) came out at 0.02833; in test [4] (Example 36, 24 hr), 0.00264; in test [6], 3.4196. The Extracellular vesicle concentration is 5.667e+08 mL⁻¹ in test [4] (Example 36, 4 hr); 5.274e+07 mL⁻¹ in test [4] (Example 36, 24 hr); 6.8e+10 mL⁻¹ in test [6]. In addition, the “Expected value λ” value in test [4] (4 hr) amounted to 0.01417; in test [4] (24 hr) it was 0.00132; in test [6] (setting [8]) it was 0.000107; in test [6] (setting [9]), 0.3689; in test [6] (setting [10]), 0.03574; in test [6] (setting [11]) it was 0.01933. The “Expected value λ” value in test [6] (setting [12]) was determined as 1.56. Also, the Number of positives in test [4] (4 hr) is 395; in test [4] (24 hr), 37; in test [6] (setting [8]) it was 3; in test [6] (setting [9]), 8,663; in test [6] (setting [10]), 986; in test [6] (setting [11]) it was 536. Moreover, the Number of positives in test [6] (setting [12]) is on record as 22,181. Further, the Positive ratio was 0.01407 in test [4] (4 hr); 0.00132 in test [4] (24 hr); 0.000107 in test [6] (setting [8]); 0.3085 in test [6] (setting [9]); 0.03511 in test [6] (setting [10]); 0.01914 in test [6] (setting [11]). Moreover, the Positive ratio in test [6] (setting [12]) came out at 0.7899. Moreover, the “Fluorescence change after 2 hours” value in test [5] (setting [7]) is reported as 28,167 ΔRFU; in test [5] (5 μM with 5 μM Custom #2T), 32,014 ΔRFU.
